Data on 8 molecules can be found in patent US10053725B2, “In situ interaction determination” (President and Fellows of Harvard College, priority 2013, dated 2018).

Where no end group is shown, it is not given here.

For one assay, the target named is T1, His6-Bcl-xL (Homo sapiens, UniProt Q07817).
T1 construct: His6-Bcl-xL (truncated C-terminus, amino acids 1 to 212); expressed in transfected cells; host or cells: HEK-293T (lysate)
In words: ISID with DNA-αHis and His6-tagged Bcl-xL. The format is binding.

In assay [1] the target is T2, streptavidin (SA) (Streptomyces avidinii, UniProt P22629). The conditions noted are these: read-out: SA-iminobiotin Kd; cited from earlier work.
T2 sequence (P22629 25-183, species assumed): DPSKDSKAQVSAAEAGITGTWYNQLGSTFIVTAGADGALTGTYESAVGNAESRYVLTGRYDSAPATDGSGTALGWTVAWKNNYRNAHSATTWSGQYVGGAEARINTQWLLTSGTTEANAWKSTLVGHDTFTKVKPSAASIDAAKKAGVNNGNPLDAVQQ
Another assay addresses T3, SNAP-CA (Homo sapiens, UniProt P00918).
T3 construct: expressed in transfected cells; host or cells: HEK-293T (lysate)
Kind of assay: Model library×library ISID with SNAP-tagged targets: CAII. The format is binding. The conditions noted are these: 262 DNA-linked ligands × 259 DNA-linked targets; counts DNA-BG sample / DNA alone sample.

A further assay concerns the target T4, CAII-His6 (Homo sapiens, UniProt P00918).
T4 construct: expressed in transfected cells; host or cells: HEK-293T (lysate)
Kind of assay: ISID with DNA-αHis and His6-tagged CAII. Format: binding.

For assay [2], the target named is carbonic anhydrase II (CAII) (Homo sapiens, UniProt P00918). As to conditions: read-out: CAII:GLCBS Kd; cited from earlier work.
Assay [3] has as its target T5, carbonic anhydrase II (CAII) (Homo sapiens, UniProt P00918, S2A).
T5 construct: made in house; host or cells: E. coli BL21(DE3), pACA plasmid
Kind of assay: Antibody-mediated ISID with DNA-αCAII and CAII in HeLa lysate. The format is binding. The conditions noted are these: T4 DNA polymerase; mock library DNA-GLCBS/DNA-desthiobiotin; 0.01% CAII in HeLa lysate. On the procedure:
(§1) In cases where recombinant SA or CAII was added to HeLa lysate at 0.01% wt, the protein content of the HeLa cell lysate was first estimated using the Modified Lowry Assay Kit (Thermo Scientific). HeLa cell lysate replaced water in the primer extension reaction mixture, and was added in volumes of 5.7-8.5 μL, with a maximum weight of 60 μg total protein added.

Another assay deals with T6, SNAP-CAII or CAII-SNAP (Homo sapiens, UniProt P00918, S2A).
T6 construct: expressed in transfected cells; host or cells: HEK-293T (lysate)
Kind of assay: ISID in 293T cell lysate expressing SNAP-tagged CAII. The conditions noted are these: 293T lysate expressing SNAP-CAII or CAII-SNAP; mixtures with DNA-desthiobiotin. Format: binding.

In assay [4] the target is T7, SNAP-Bcl-xL or Bcl-xL-SNAP (Homo sapiens, UniProt Q07817).
T7 construct: His6-Bcl-xL (truncated C-terminus, amino acids 1 to 212); expressed in transfected cells; host or cells: HEK-293T (lysate)
T7 sequence (Q07817 1-212): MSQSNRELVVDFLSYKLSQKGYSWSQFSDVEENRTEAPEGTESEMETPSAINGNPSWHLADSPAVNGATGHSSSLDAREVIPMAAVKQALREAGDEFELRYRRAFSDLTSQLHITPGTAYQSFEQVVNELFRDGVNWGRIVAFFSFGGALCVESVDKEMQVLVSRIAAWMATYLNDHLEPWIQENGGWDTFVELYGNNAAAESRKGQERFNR
Kind of assay: ISID in 293T cell lysate expressing SNAP-tagged Bcl-xL. Format: binding. As to conditions: mixtures of DNA-Bak/DNA-BakL78A/DNA-biotin.

A further assay deals with Bcl-xL (Homo sapiens, UniProt Q07817). The conditions noted are these: cited from earlier work.
Bcl-xL, sequence (Q07817 whole entry, species assumed): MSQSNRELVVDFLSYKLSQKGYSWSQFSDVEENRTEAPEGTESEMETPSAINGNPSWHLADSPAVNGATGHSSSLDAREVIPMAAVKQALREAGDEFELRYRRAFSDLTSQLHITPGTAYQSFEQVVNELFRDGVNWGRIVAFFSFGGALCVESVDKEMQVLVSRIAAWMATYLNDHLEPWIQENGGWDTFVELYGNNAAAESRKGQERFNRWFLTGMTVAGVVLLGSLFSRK
The target of assay [5] is T2, streptavidin (SA). Kind of assay: Antibody-mediated ISID with DNA-αSA and streptavidin (qPCR, mock-library enrichment). The format is binding. On the procedure:
as §1

Another assay deals with T8, SNAP-Bcl-xL (UniProt Q07817-1 1-212, SNAP-tag covalently labelled with O6-benzylguanine-linked DNA (DNA-BG)).
T8 construct: also called N-terminally SNAP-tagged Bcl-xL; not shown: SNAP-tag from the pSNAPf vector (New England Biolabs)
T8 sequence (Q07817 1-212): as the sequence (Q07817 1-212) above
In words: model library x library ISID, pooled 293T lysates expressing SNAP-target fusions; sequence counts with DNA-BG divided by counts with DNA alone.

Assay [6] deals with T9, His6-Bcl-xL (truncated C-terminus, amino acids 1 to 212) (UniProt Q07817 1-212).
T9 construct: range 1-212
T9 sequence (Q07817 other isoform, or with tags, fused parts or gaps): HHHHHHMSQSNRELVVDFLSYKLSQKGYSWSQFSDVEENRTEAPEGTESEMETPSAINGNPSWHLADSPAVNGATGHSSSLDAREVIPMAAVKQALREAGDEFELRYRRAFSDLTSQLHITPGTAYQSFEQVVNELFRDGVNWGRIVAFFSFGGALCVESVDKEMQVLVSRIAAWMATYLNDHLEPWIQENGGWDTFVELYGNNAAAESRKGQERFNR
In words: ISID with DNA-αHis in lysate of 293T cells expressing His6-Bcl-xL, mock library, restriction digest and PAGE.

[7] abbreviates: T4 DNA polymerase, 8-nt complementary region, mock library with DNA-GLCBS, SA 0.01% wt in HeLa lysate.

T1 sequence (Q07817 3-212): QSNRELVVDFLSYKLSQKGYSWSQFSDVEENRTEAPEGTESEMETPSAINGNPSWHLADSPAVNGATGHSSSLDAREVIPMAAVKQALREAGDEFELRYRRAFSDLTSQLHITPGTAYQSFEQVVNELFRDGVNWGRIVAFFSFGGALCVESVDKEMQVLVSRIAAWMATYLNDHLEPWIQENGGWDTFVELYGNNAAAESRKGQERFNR

As to “DNA-Bad: DNA oligonucleotide linked to Bad BH3 peptide”, the ΔCT with His6-Bcl-xL (293T cell lysate expressing His6-BclxL, vs DNA-GLCBS or DNA-biotin) amounted to 8; with His6-Bcl-xL (recombinant His6-Bcl-xL), 3 cycles.
With `N=C1N[C@H]2[C@H](CS[C@H]2CCCCC(=O)O)N1` [iminobiotin], the dissociation constant (Kd) at streptavidin (SA) [1] was 13 µM.
In turn, Gly-Leu-CBS [GLCBS] had an enrichment factor at SNAP-CA of 178.3. Besides, the enrichment of sequence is listed as around 10 fold on CAII-His6 (293T cell lysate expressing CAII-His6, undiluted, mock library); around 100 fold on CAII-His6 (transfected lysate diluted 1:10 into untransfected 293T lysate); around 10 fold at CAII-His6 (transfected lysate diluted 1:100 into untransfected lysate, approximating 3 nM CAII-His6); 10 fold in assay [3]; around 100 fold on SNAP-CAII or CAII-SNAP. Besides, the equilibrium dissociation constant (Kd) in assay [2] is 0.04 µM.
“BakL78A: BakL78A (72-87) peptide, a weakly binding mutant of the Bak peptide (GQVGRQAAIIGDDINR; not fully specified)”: the enrichment of sequence entry in assay [4] is listed as “no enrichment”. Besides, in the assay with Bcl-xL, the Kd is 270 µM.
`C[C@@H]1NC(=O)N[C@@H]1CCCCCC(=O)O` [desthiobiotin] came in with a ΔCT on streptavidin (SA) [5] (DNA-αSA, 0.01% SA in HeLa lysate, qPCR) of 4.7. Moreover, at streptavidin (SA) [5] (setting [7]), the enrichment of sequence was around 1000 fold.
With `O=C(O)CCCC[C@@H]1SC[C@@H]2NC(=O)N[C@@H]21` [biotin], the enrichment of sequence at streptavidin (SA) [5] (Klenow exo−, mixtures DNA-biotin/DNA-GLCBS, SA 0.01% wt in HeLa cell lysate) is listed as around 10 fold; on streptavidin (SA) [5] (setting [7]), ~1,000 fold. This molecule also gave an improvement in enrichment at streptavidin (SA) [5] (T4 DNA polymerase/8-nt vs Klenow exo−/6-nt complementary region) of 100 fold.

B1: Bad BH3 peptide (103-127) (peptide, UniProt Q92934 103-127, looked up)
peptide: NLWAAQRYGRELRRMSDEFVDSFKK
modifications: also: conjugated to 3'-thiol DNA via SM(PEG)2 crosslinker, attachment site not given here
notes: range 103-127; Used as a peptide-DNA conjugate in ISID; also called DNA-Bad; 3h-Bad
B1: in the assay with SNAP-Bcl-xL, the enrichment factor amounted to 238. Moreover, the enrichment in assay [6] was around 100 fold.

B2: BakL78A (72-87) peptide (peptide, UniProt Q16611 72-87, looked up)
peptide: GQVGRQAAIIGDDINR
modifications: also: conjugated to 3'-thiol-modified DNA via SM(PEG)2 crosslinker, site not given here
notes: range 72-87; also called DNA-BakL78A; 3i-BakL78A
Molecule B2 came in with an enrichment factor in the assay with SNAP-Bcl-xL of 3.9.
